Measured values published in US7713965B2, “7-substituted 3-carboxy-oxadiazino-quinolone derivatives, their preparation and their application as anti-bacterials” (Vetoquinol SA, priority 2008, dated 2010).
Values after ≈ are worked out from the molar mass of the structure shown.

Legend:
Assay type in all cases: cell-based
[1] = tested on: Staphylococcus aureus (r = resistant); assay: MIC determination by microdilution in liquid medium, Sta aur r; details: read-out: MIC Sta aur r
[2] = tested on: Pseudomonas aeruginosa (r = resistant); assay: MIC determination by microdilution in liquid medium, Pse aer r; details: read-out: MIC Pse aer r
Mycoplasma bovis = assay: MIC determination by microdilution in liquid medium, Myc bov; details: Mycoplasmopsis bovis
E. coli ATCC 25922 = assay: MIC determination by microdilution in liquid medium, E. coli ATCC 25922; details: Escherichia coli, ATCC25922
Streptococcus uberis = assay: MIC determination by microdilution in liquid medium, Str ube
[3] = tested on: Staphylococcus aureus (s = susceptible); assay: MIC determination by microdilution in liquid medium, Sta aur s; details: susceptible strain
M. bovirhinis = assay: MIC determination by microdilution in liquid medium, M. bovirhinis; details: Mycoplasma
Escherichia coli = assay: MIC determination by microdilution in liquid medium, E coli
E. faecalis ATCC 29212 = assay: MIC determination by microdilution in liquid medium, E. faecalis ATCC 29212; details: Enterococcus faecalis, ATCC29212, read-out: MIC E. fae-calis ATCC 29212
[4] = tested on: Mannheimia haemolytica (r = resistant); assay: MIC determination by microdilution in liquid medium, Man hae r; details: resistant strain
[5] = tested on: Mannheimia haemolytica (s = susceptible); assay: MIC determination by microdilution in liquid medium, Man hae s; details: susceptible strain
[6] = tested on: Pseudomonas aeruginosa (s = susceptible); assay: MIC determination by microdilution in liquid medium, Pse aer s; details: susceptible strain
[7] = tested on: Bordetella bronchiseptica; assay: MIC determination by microdilution in liquid medium, Bor bron
Clostridium perfringens = assay: microbe, parasite or virus in culture; details: read-out: MIC Clo per

With CN1COc2c(N3CC[C@H](Nc4nccs4)C3)c(F)cc3c(=O)c(C(=O)O)cn1c23 [Example 18, 8-Fluoro-3-methyl-6-oxo-9-[(S)-3-(thiazol-2-ylamino)-pyrrolidin-1-yl]-2,3dihydro-6H-1-oxa-3,3a-diaza-phenalene-5-carboxylic acid] the MIC [1] was 4 µg/mL (≈ 9.27 µM), the MIC [2] was 32 µg/mL (≈ 74.2 µM) and the MIC (Mycoplasma bovis) was 0.25 µg/mL (≈ 0.579 µM). For the same molecule, the MIC (E. coli ATCC 25922) was 0.06 µg/mL (≈ 0.139 µM), the MIC (Streptococcus uberis) was 0.25 µg/mL (≈ 0.579 µM) and the MIC [3] was < 0.03 µg/mL. For the same molecule, the MIC (M. bovirhinis) was ≤ 0.03 µg/mL, the MIC (Escherichia coli) was 0.5 µg/mL (≈ 1.16 µM) and the MIC (E. faecalis ATCC 29212) was ≤ 0.03 µg/mL. For the same molecule, the MIC [4] was > 32 µg/mL, the MIC [5] was 0.12 µg/mL (≈ 0.278 µM) and the MIC [6] was 4 µg/mL (≈ 9.27 µM). The MIC [7] was 0.25 µg/mL (≈ 0.579 µM) and the MIC (Clostridium perfringens) was 0.06 µg/mL (≈ 0.139 µM).

In the case of CN1COc2c(N3CC[C@@H](Nc4nccs4)C3)c(F)cc3c(=O)c(C(=O)O)cn1c23 [Example 19, 8-Fluoro-3-methyl-6-oxo-9-[(R)-3-(thiazol-2-ylamino)-pyrrolidin-1-yl]-2,3-dihydro-6H-1-oxa-3,3a-diaza-phenalene-5-carboxylic acid], the MIC [1] was 0.25 µg/mL (≈ 0.579 µM), the MIC [2] was 8 µg/mL (≈ 18.5 µM) and the MIC (Mycoplasma bovis) was < 0.03 µg/mL. For the same molecule, the MIC (E. coli ATCC 25922) was 0.25 µg/mL (≈ 0.579 µM), the MIC (Streptococcus uberis) was < 0.03 µg/mL and the MIC [3] was < 0.03 µg/mL. For the same molecule, the MIC (M. bovirhinis) was 0.25 µg/mL (≈ 0.579 µM), the MIC (Escherichia coli) was 0.06 µg/mL (≈ 0.139 µM) and the MIC (E. faecalis ATCC 29212) was 0.06 µg/mL (≈ 0.139 µM). For the same molecule, the MIC [4] was 8 µg/mL (≈ 18.5 µM), the MIC [5] was 0.03 µg/mL (≈ 0.0695 µM) and the MIC [6] was 2 µg/mL (≈ 4.64 µM). The MIC [7] was 0.12 µg/mL (≈ 0.278 µM) and the MIC (Clostridium perfringens) was < 0.03 µg/mL.

With CN1COc2c(N3CCC(Nc4cnccn4)C3)c(F)cc3c(=O)c(C(=O)O)cn1c23 (stereo not shown) [Example 7] the MIC [1] was 0.5 µg/mL (≈ 1.17 µM), the MIC [2] was 16 µg/mL (≈ 37.5 µM) and the MIC (Mycoplasma bovis) was < 0.03 µg/mL. The MIC (E. coli ATCC 25922) was 0.25 µg/mL (≈ 0.586 µM), the MIC (Streptococcus uberis) was 0.06 µg/mL (≈ 0.141 µM) and the MIC [3] was < 0.03 µg/mL. For the same molecule, the MIC (M. bovirhinis) was 0.06 µg/mL (≈ 0.141 µM), the MIC (Escherichia coli) was 0.25 µg/mL (≈ 0.586 µM) and the MIC (E. faecalis ATCC 29212) was ≤ 0.03 µg/mL. The MIC [4] was 16 µg/mL (≈ 37.5 µM), the MIC [5] was 0.06 µg/mL (≈ 0.141 µM) and the MIC [6] was 2 µg/mL (≈ 4.69 µM). It also gave an MIC [7] of 0.5 µg/mL (≈ 1.17 µM) and an MIC (Clostridium perfringens) of 0.06 µg/mL (≈ 0.141 µM).

In the case of CN1COc2c(N3C[C@@H](N)C(C)(C)C3)c(F)cc3c(=O)c(C(=O)O)cn1c23 [Example 34, 9-((S)-4-Amino-3,3-dimethyl-pyrrolidin-1-yl)-8-fluoro-3-methyl-6-oxo-2,3-dihydro-6H-1-oxa-3,3a-diaza-phenalene-5-carboxylic acid], the MIC [1] was 2 µg/mL (≈ 5.31 µM), the MIC [2] was 8 µg/mL (≈ 21.3 µM) and the MIC (Mycoplasma bovis) was 0.5 µg/mL (≈ 1.33 µM). The MIC (E. coli ATCC 25922) was 0.03 µg/mL (≈ 0.0797 µM), the MIC (Streptococcus uberis) was 0.12 µg/mL (≈ 0.319 µM) and the MIC [3] was < 0.03 µg/mL. For the same molecule, the MIC (M. bovirhinis) was 0.12 µg/mL (≈ 0.319 µM), the MIC (Escherichia coli) was 0.03 µg/mL (≈ 0.0797 µM) and the MIC (E. faecalis ATCC 29212) was 0.25 to 0.5 µg/mL (≈ 0.664 to 1.33 µM). It also gave an MIC [4] of 8 µg/mL (≈ 21.3 µM), an MIC [5] of 0.03 µg/mL (≈ 0.0797 µM) and an MIC [6] of 0.5 µg/mL (≈ 1.33 µM). The MIC [7] was 0.5 µg/mL (≈ 1.33 µM) and the MIC (Clostridium perfringens) was < 0.03 µg/mL.

CN1COc2c(N3CC[C@@H](NC(=O)C(F)(F)F)C3)c(F)cc3c(=O)c(C(=O)O)cn1c23 [Example 29, 8-Fluoro-3-methyl-6-oxo-9-[(R)-3-(2,2,2-trifluoro-acetylamino)-pyrrolidin-1-yl]-2,3-dihydro-6H-1-oxa-3,3a-diaza-phenalene-5-carboxylic acid] gave an MIC [1] of 8 µg/mL (≈ 18 µM), an MIC [2] of 4 µg/mL (≈ 9 µM) and an MIC (Mycoplasma bovis) of 0.5 µg/mL (≈ 1.13 µM). The MIC (E. coli ATCC 25922) was 0.06 µg/mL (≈ 0.135 µM), the MIC (Streptococcus uberis) was 0.5 µg/mL (≈ 1.13 µM) and the MIC [3] was 0.12 µg/mL (≈ 0.27 µM). It also gave an MIC (M. bovirhinis) of 1 µg/mL (≈ 2.25 µM), an MIC (Escherichia coli) of 0.06 µg/mL (≈ 0.135 µM) and an MIC (E. faecalis ATCC 29212) of 1 to 2 µg/mL (≈ 2.25 to 4.5 µM). It also gave an MIC [4] of 8 µg/mL (≈ 18 µM), an MIC [5] of 0.03 µg/mL (≈ 0.0675 µM) and an MIC [6] of 0.25 µg/mL (≈ 0.563 µM). The MIC [7] was > 1 µg/mL and the MIC (Clostridium perfringens) was 0.25 µg/mL (≈ 0.563 µM).

With CN1COc2c(N3CCC(C(N)c4nccs4)C3)c(F)cc3c(=O)c(C(=O)O)cn1c23 (stereo not shown) [Example 39, 9-[3-(Amino-thiazol-2-yl-methyl)-pyrrolidin-1-yl]-8-fluoro-3-methyl-6-oxo-2,3-dihydro-6H-1-oxa-3,3a-diaza-phenalene-5-carboxylic acid] the MIC [1] was 2 µg/mL (≈ 4.49 µM), the MIC [2] was 16 µg/mL (≈ 35.9 µM) and the MIC (Mycoplasma bovis) was 0.12 µg/mL (≈ 0.269 µM). For the same molecule, the MIC (E. coli ATCC 25922) was 0.03 to 0.12 µg/mL (≈ 0.0673 to 0.269 µM), the MIC (Streptococcus uberis) was 0.12 µg/mL (≈ 0.269 µM) and the MIC [3] was ≤ 0.03 µg/mL. The MIC (M. bovirhinis) was 0.06 µg/mL (≈ 0.135 µM), the MIC (Escherichia coli) was 0.25 µg/mL (≈ 0.561 µM) and the MIC (E. faecalis ATCC 29212) was 0.12 µg/mL (≈ 0.269 µM). The MIC [4] was 16 µg/mL (≈ 35.9 µM), the MIC [5] was 0.03 µg/mL (≈ 0.0673 µM) and the MIC [6] was 2 µg/mL (≈ 4.49 µM). For the same molecule, the MIC [7] was 0.5 µg/mL (≈ 1.12 µM) and the MIC (Clostridium perfringens) was ≤ 0.03 µg/mL.

With CN1COc2c(N3CCC(Nc4ccccn4)C3)c(F)cc3c(=O)c(C(=O)O)cn1c23 (stereo not shown) [Example 8] the MIC [1] was 4 µg/mL (≈ 9.4 µM), the MIC [2] was > 32 µg/mL and the MIC (Mycoplasma bovis) was 0.06 µg/mL (≈ 0.141 µM). The MIC (E. coli ATCC 25922) was 0.12 µg/mL (≈ 0.282 µM), the MIC (Streptococcus uberis) was 0.25 µg/mL (≈ 0.588 µM) and the MIC [3] was 0.06 µg/mL (≈ 0.141 µM). For the same molecule, the MIC (M. bovirhinis) was 0.06 µg/mL (≈ 0.141 µM), the MIC (Escherichia coli) was 0.5 µg/mL (≈ 1.18 µM) and the MIC (E. faecalis ATCC 29212) was 0.25 µg/mL (≈ 0.588 µM). It also gave an MIC [4] of 32 µg/mL (≈ 75.2 µM), an MIC [5] of 0.25 µg/mL (≈ 0.588 µM) and an MIC [6] of 8 µg/mL (≈ 18.8 µM). The MIC [7] was > 1 µg/mL and the MIC (Clostridium perfringens) was < 0.03 µg/mL.

CN1COc2c(N3CCC(Nc4nncs4)C3)c(F)cc3c(=O)c(C(=O)O)cn1c23 (stereo not shown) [Example 10, 8-Fluoro-3-methyl-6-oxo-9-[3-([1,3,4]thiadiazol-2-ylamino)-pyrrolidin-1-yl]-2,3-dihydro-6H1-oxa-3,3a-diaza-phenalene-5-carboxylic acid] was tested, and the MIC [1] was 4 µg/mL (≈ 9.25 µM), the MIC [2] was > 32 µg/mL and the MIC (Mycoplasma bovis) was 0.12 µg/mL (≈ 0.277 µM). The MIC (E. coli ATCC 25922) was 1 µg/mL (≈ 2.31 µM), the MIC (Streptococcus uberis) was < 0.03 µg/mL and the MIC [3] was < 0.03 µg/mL. It also gave an MIC (M. bovirhinis) of 2 µg/mL (≈ 4.62 µM), an MIC (Escherichia coli) of 0.25 µg/mL (≈ 0.578 µM) and an MIC (E. faecalis ATCC 29212) of 0.25 µg/mL (≈ 0.578 µM). The MIC [4] was > 32 µg/mL, the MIC [5] was 0.03 µg/mL (≈ 0.0694 µM) and the MIC [6] was 4 µg/mL (≈ 9.25 µM). The MIC [7] was 2 µg/mL (≈ 4.62 µM) and the MIC (Clostridium perfringens) was < 0.03 µg/mL.
